Experimental data: paper PMC7044277 (Nature Communications, 2020)
Values joined by “and” are separate entries in the source; they are usually repeats but may differ in a detail not shown here. Equal values may be shown once.

Assays:
Assay type in all cases: cell-based
320 non-olfactory GPCRs [1] = target: T1, 320 non-olfactory GPCRs (Homo sapiens, UniProt Q96LB0); details: receptor MRGPRX3; replicate values, Fig_4g
T1 construct: expressed in transfected cells; host or cells: HTLA cells

320 non-olfactory GPCRs [2] = target: 320 non-olfactory GPCRs (Homo sapiens, UniProt P30542)
Chain of 320 non-olfactory GPCRs (Homo sapiens, UniProt P30542) (P30542 whole entry): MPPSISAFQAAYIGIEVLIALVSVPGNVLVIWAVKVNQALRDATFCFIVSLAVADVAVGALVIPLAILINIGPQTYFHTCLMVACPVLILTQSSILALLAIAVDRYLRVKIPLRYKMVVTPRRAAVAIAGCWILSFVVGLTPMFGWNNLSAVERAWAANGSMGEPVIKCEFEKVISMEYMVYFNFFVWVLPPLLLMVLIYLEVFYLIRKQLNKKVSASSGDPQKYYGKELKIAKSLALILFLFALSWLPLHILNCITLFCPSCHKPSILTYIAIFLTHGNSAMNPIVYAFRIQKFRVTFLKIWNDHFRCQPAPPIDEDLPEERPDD

320 non-olfactory GPCRs [3] = target: T2, 320 non-olfactory GPCRs (Homo sapiens, UniProt O95838)
T2 construct: expressed in transfected cells; host or cells: HTLA cells
T2 sequence (O95838 whole entry): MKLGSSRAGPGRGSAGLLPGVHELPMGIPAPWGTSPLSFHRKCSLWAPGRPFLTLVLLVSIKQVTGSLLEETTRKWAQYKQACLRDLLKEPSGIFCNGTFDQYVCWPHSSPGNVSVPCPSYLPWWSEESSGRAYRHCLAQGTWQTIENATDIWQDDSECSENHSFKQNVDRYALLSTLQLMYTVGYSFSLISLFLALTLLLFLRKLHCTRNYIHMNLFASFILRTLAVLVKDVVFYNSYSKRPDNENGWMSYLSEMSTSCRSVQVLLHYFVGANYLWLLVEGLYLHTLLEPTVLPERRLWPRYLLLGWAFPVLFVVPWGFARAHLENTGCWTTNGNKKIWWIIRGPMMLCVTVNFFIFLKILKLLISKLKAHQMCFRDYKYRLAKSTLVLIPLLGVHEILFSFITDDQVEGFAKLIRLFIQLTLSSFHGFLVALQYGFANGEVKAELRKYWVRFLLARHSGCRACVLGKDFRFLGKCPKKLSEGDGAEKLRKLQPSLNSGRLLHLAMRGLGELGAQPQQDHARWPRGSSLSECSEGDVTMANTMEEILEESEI

320 non-olfactory GPCRs [4] = target: T3, 320 non-olfactory GPCRs (Homo sapiens, UniProt Q96LB1); details: receptor MRGPRX2; replicate values, Fig_4g
T3 construct: expressed in transfected cells; host or cells: HTLA cells
T3 sequence (Q96LB1 whole entry): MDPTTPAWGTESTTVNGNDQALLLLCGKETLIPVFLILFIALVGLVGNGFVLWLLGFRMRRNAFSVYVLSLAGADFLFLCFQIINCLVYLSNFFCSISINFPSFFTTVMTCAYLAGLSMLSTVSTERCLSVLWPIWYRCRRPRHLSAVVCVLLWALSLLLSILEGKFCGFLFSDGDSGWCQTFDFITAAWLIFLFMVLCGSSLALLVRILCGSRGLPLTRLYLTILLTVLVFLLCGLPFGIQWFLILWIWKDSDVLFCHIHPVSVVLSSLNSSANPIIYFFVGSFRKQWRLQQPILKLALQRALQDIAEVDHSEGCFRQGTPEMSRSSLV
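Wherever Fold of Basal is given: compound tested at 1 µM final concentration.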
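Wherever GPCRome agonism screen response is given: fold over basal response of each receptor without drug.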

T1 sequence (Q96LB0 whole entry): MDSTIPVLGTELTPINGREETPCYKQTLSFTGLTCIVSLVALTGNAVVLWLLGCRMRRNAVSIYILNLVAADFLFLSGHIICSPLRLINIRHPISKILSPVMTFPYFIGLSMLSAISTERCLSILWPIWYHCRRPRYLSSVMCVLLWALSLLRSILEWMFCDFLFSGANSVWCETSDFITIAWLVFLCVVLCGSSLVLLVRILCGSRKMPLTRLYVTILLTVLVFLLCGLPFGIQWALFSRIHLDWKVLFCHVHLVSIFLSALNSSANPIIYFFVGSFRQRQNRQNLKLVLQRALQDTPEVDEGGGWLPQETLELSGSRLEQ

## CCOc1cccc2cc(C(C)NCC3(O)CCCCC3)oc12 (stereo not shown) [O4LE6]
320 non-olfactory GPCRs [1]
  GPCRome agonism screen response: 0.501 and 0.6269 and 0.3987 and 0.4556
320 non-olfactory GPCRs [2]
  Fold of Basal: 0.6117 and 1.0436 and 0.9318 and 0.9525
320 non-olfactory GPCRs [3]
  Fold of Basal: 0.5783 and 0.9087 and 0.8921 and 0.8331
320 non-olfactory GPCRs [4]
  GPCRome agonism screen response: 1.268 and 1.306 and 1.279 and 0.9356
